pIC50: −log10 of the molar value. Structures can show the parent of a compound that is named as a salt.
target: GST tagged IRAK4 (Homo sapiens (Human), UniProt Q9NWZ3); assay: IRAK4 Kinase Assay (IMAP fluorescence polarization); assay type: biochemical; conditions: 0.5 nM GST tagged IRAK4, 100 μM ATP, 30 minutes at 25° C.
Outline: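 GST-tagged IRAK4 (0.5 nM) phosphorylates 100 nM fluorescent peptide with 100 μM ATP in 10 mM Tris pH 7.2, 1 mM MgCl2, 1 mM DTT, 0.01% Tween 20 for 30 min at 25 °C. Phosphorylation read as IMAP nanoparticle-binding fluorescence polarization after stop reagent.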

Chain of GST tagged IRAK4 (Q9NWZ3 whole entry): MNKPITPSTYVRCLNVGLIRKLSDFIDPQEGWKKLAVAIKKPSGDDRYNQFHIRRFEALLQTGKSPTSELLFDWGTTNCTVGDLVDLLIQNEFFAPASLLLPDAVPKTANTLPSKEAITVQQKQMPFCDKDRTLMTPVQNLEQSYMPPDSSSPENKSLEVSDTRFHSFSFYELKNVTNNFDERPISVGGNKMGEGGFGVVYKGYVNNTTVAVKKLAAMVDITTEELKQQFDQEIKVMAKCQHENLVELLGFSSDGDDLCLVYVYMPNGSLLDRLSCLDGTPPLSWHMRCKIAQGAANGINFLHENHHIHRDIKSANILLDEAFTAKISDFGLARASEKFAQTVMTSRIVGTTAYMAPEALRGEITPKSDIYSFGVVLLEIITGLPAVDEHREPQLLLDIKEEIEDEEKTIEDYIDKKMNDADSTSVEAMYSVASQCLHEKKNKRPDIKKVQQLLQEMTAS

| SMILES | pIC50 |
| --- | --- |
| N[C@H]1CCCC[C@H]1Nc1cnc2scc(C(=O)Nc3cscc3Cl)c2n1 [Example 110, 2-{[(1R,2S)-2-aminocyclohexyl]-amino}-N-(4-chlorothiophen-3-yl)thieno[2,3-b]-pyrazine-7-carboxamide trifluoroacetate] | 9.15 |
| Cn1cc(NC(=O)c2csc3ncc(N4C[C@@H]5CC[C@H]4CN5)nc23)c(Br)n1 (single isomer, unassigned) [Example 19, N-(3-bromo-1-methyl-1H-pyrazol-4-yl)-2-[(1S,4S)- or (1R,4R)-2,5-diazabicyclo[2.2.2]oct-2-yl]thieno[2,3-b] pyrazine-7-carboxamide trifluoroacetate] | 7.15 |
| O=C(Nc1cscc1Br)c1csc2ncc(N3CCCNCC3)nc12 [Example 48, N-(4-bromothiophen-3-yl)-2-(1,4-diazepan-1-yl)thieno[2,3-b] pyrazine-7-carboxamide trifluoroacetate] | 6.46 |
| N#Cc1cscc1NC(=O)c1csc2ncc(N[C@@H]3CCCC[C@@H]3N)nc12 [Example 57, 2-{[(1R,2S)-2-amino-cyclohexyl]amino}-N-(4-cyanothiophen-3-yl)thieno[2,3-b] pyrazine-7-carboxamide trifluoroacetate] | 9.30 |
| Cn1cc(NC(=O)c2csc3ncc(N4CCC[C@@H](N)C4)nc23)c(C(F)F)n1 [Example 24, 2[(3R)-3-aminopiperidin-1-yl] N-[3-(difluoromethyl)-1-methyl-1H-pyrazol-4-yl]thieno[2,3-b] pyrazine-7-carboxamide trifluoroacetate] | 9.70 |
| N[C@@H]1[C@H](Nc2cnc3scc(C(=O)Nc4cscc4Br)c3n2)CCCC1(F)F [Example 68, 2-{[(1R,2R)-2-amino-3,3-difluorocyclohexyl]amino}-N-(4-bromothiophen-3-yl) thieno[2,3-b] pyrazine-7-carboxamide formate] | 5.68 |
| N[C@H]1CCCC[C@H]1Nc1cnc2scc(C(=O)Nc3ccccc3C(F)(F)F)c2n1 [Example 81, 2-{[(1R,2S)-2-aminocyclo-hexyl]amino}-N-[2-(trifluoromethyl)phenyl]thieno[2,3-b]pyrazine-7-carboxamide trifluoroacetate] | 7.07 |
| O=C(Nc1ccccc1Cl)c1csc2ncc(N3C[C@H]4CC[C@@H]3CN4)nc12 (single isomer, unassigned) [Example 100, N-(2-chlorophenyl)-2-[(1S,4S)- or (1R,4R)-2,5-diazabicyclo-[2.2.2]oct-2-yl]thieno[2,3-b]-pyrazine-7-carboxamide trifluoroacetate] | 6.72 |
| N[C@@H]1[C@H](Nc2cnc3scc(C(=O)Nc4ccccc4Br)c3n2)CCCC1(F)F [Example 96, 2-{[(1R,2R)-2-amino-3,3-difluorocyclo-hexyl]amino}-N-(2-bromo-phenyl)thieno-[2,3-b]-pyrazine-7-carboxamide] | 5.70 |
| Cn1cc(NC(=O)c2csc3ncc(N[C@H]4CCCCNC4)nc23)c(C(F)(F)F)n1 (single isomer, unassigned) [Example 31, 2-[(3S)- or (3R)-azepan-3-ylamino]-N-[1-methyl-3-(trifluoromethyl)-1H-pyrazol-4-yl] thieno[2,3-b] pyrazine-7-carboxamide trifluoroacetate] | 8.15 |
| N#Cc1ccccc1NC(=O)c1csc2ncc(N3C[C@H]4CC[C@@H]3CN4)nc12 (single isomer, unassigned) [Example 98, N-(2-cyanophenyl)-2-[(1S,4S)- or (1R,4R)-2,5-diazabicyclo-[2.2.2]oct-2-yl]thieno[2,3-b]-pyrazine-7-carboxamide trifluoroacetate] | 6.60 |
| Cn1cc(NC(=O)c2csc3ncc(N4CCC[C@@H](N)C4)nc23)c(C(F)(F)F)n1 [Example 9, 2-[(3R)-3-aminopiperidin-1-yl]-N-[1-methyl-3-(trifluoromethyl)-1H-pyrazol-4-yl] thieno[2,3-b] pyrazine-7-carboxamide trifluoroacetate] | 9.00 |

From patent US10040802B2, “Thienopyrazine inhibitors of IRAK4 activity” (MERCK SHARP & DOHME CORP., priority 2015, dated 2018)
